In ChEMBL document CHEMBL1151967, “Cytotoxic biscembranes from the soft coral Sarcophyton glaucum” (J Nat Prod, 2009) one finds IC50 data, which are given here for six molecules.

The assay concerns HL-60. In words: Cytotoxicity against human HL60 cells. The assay is classed as functional, cell-based.

In general, IC50 refers to the concentration that gives 50% inhibition. Read a low IC50 as greater potency. Molecule `COC(=O)[C@]12CC(=O)[C@H](C(C)C)CC(=O)/C(C)=C\CC/C(C)=C/C(=O)[C@H]1CC(C)=C1C[C@H](OC(C)=O)[C@](C)(O)[C@H]3CC[C@@](C)(O)[C@H](CC/C(C)=C/[C@@H]12)O3` [BISGLAUCUMLIDE F] gave an IC50 of 13.3 µM. That is a double-digit micromolar value. In turn, `COC(=O)[C@]12CC(=O)[C@H](C(C)C)CC(=O)/C(C)=C/CC/C(C)=C\C(=O)[C@H]1CC(C)=C1C[C@H](O)[C@](C)(O)[C@H]3CC[C@@](C)(O3)[C@@H](O)CC/C(C)=C/[C@@H]12` [BISGLAUCUMLIDE H] registered an IC50 of 47.8 µM. To `COC(=O)[C@]12CC(=O)[C@H](C(C)C)CC(=O)/C(C)=C/CC/C(C)=C/C(=O)[C@H]1CC(C)=C1C[C@H](O)[C@](C)(O)[C@H]3CC[C@](C)(O3)[C@@H](O)CC/C(C)=C/[C@@H]12` [BISGLAUCUMLIDE G] belongs 58 µM; to `COC(=O)[C@]12CC(=O)[C@H](C(C)C)CC(=O)/C(C)=C/CC/C(C)=C\C(=O)[C@H]1CC(C)=C1C[C@H](O)[C@](C)(O)[C@H]3CC[C@@](C)(O)[C@H](CC/C(C)=C/[C@@H]12)O3` [BISGLAUCUMLIDE E], 41 µM. To `COC(=O)[C@]12CC(=O)/C=C(\C)CC/C=C(\C)C(=O)C[C@@H](C(C)C)C(=O)[C@H]1CC(C)=C1C[C@H](OC(C)=O)[C@](C)(O)[C@H]3CC[C@@](C)(O)[C@H](CC/C(C)=C/[C@@H]12)O3` [BISGLAUCUMLIDE K] belongs 29.8 µM; to `COC(=O)[C@]12CC(=O)/C=C(/C)CC/C=C(\C)C(=O)C[C@@H](C(C)C)C(=O)[C@H]1CC(C)=C1C[C@H](O)[C@](C)(O)[C@H]3CC[C@@](C)(O)[C@H](CC/C(C)=C/[C@@H]12)O3` [BISGLAUCUMLIDE I], 44.1 µM.
